Assay results as given in patent US20060040871A1, “Bacterial transforming agent” (priority 2003, published 2006).
Like-named read-outs stand apart in the source and are kept apart here.

What was measured:
MRSA [1] = assay type: cell-based, Staphylococcus aureus; details: agents not hydrolysed by staphylococcal β-lactamase
[2] = tested on: vancomycin- and gentamicin-resistant Enterococcus faecium; experiment: microbe, parasite or virus in culture; assay type: cell-based; details: for MIC of vancomycin: GBE 0.02M
Description: The agents of the present invention are not limited to the reversal of resistance in Staphylococcus. The test strains in Table 5 are patient-isolates of vancomycin- and gentamicin-resistant Enterococcus faecium. At the time of isolation, they were commonly resistant to all clinically useable antimicrobial agents.

MRSA [3] = assay type: cell-based, Staphylococcus aureus; details: GBE 0.00075M [0.15%]
Description: Stored frozen plasma was pooled from five subjects.
Human plasma may bind or otherwise inactivate foreign substances and good activity in plasma is indicative of good in vivo activity.

MRSA [4] = experiment: MIC of methicillin for MRSA isolates grown with glycine or GBE (Table 1); assay type: cell-based, Staphylococcus aureus; details: for MIC of methicillin: GBE 0.001M (0.2%)
MRSA [5] = experiment: Screening on Isosensitest agar with incorporated BTA and 10 μg methicillin discs; assay type: cell-based, Staphylococcus aureus; details: VRE and MRSA
Method: To find substances related to GBE that might have increased potency, various substances, including those with additional glycine moieties and benzylates, have been screened. Screening was carried out using Isosensitest agar (Oxoid, UK) into which various levels of potential BTAs were incorporated at levels between 0.01 and 1.0%. The agar with incorporated BTA was then used in the manner of a standard antibiotic sensitivity test using 10 μg methicillin discs. The test organism was inoculated onto the agar surface at a concentration suitable to achieve confluent growth after 18 hours incubation at 30° C. After incubation, zone diameters were compared with that achieved by the control plate (Isosensitest alone) for each test organism.

## NCC(=O)OCc1ccccc1 [GBE, Glycine Benzyl Ester]
MRSA [1]
  sensitivity of MRSA to other β-lactam agents in the presence of GBE: sensitive to cephalosporins and other β-lactam agents
[2]; 0.02 M GBE, Table 5
  strains tested with complete transformation (target MIC of vancomycin 2 mg/l): 100%
[2]; ATCC 29212
  MIC of vancomycin: 1 µg/mL
[2]; BBC
  MIC of vancomycin: 2 µg/mL
[2]; E254
  MIC of vancomycin: 2 µg/mL
[2]; E267
  MIC of vancomycin: 2 µg/mL
[2]; E271
  MIC of vancomycin: 2 µg/mL
[2]; E285
  MIC of vancomycin: 2 µg/mL
[2]; E297
  MIC of vancomycin: 2 µg/mL
[2]; GBC
  MIC of vancomycin: 2 µg/mL
[2]; S226
  MIC of vancomycin: 2 µg/mL
[2]; S227
  MIC of vancomycin: 2 µg/mL
[2]; S283
  MIC of vancomycin: 2 µg/mL
[2]; S302
  MIC of vancomycin: 2 µg/mL
[2]; S315
  MIC of vancomycin: 1 µg/mL
[2]; S317
  MIC of vancomycin: 2 µg/mL
[2]; S319
  MIC of vancomycin: 2 µg/mL
[2]; S333
  MIC of vancomycin: 2 µg/mL
[2]; S337
  MIC of vancomycin: 2 µg/mL
[2]; S393
  MIC of vancomycin: 2 µg/mL
[2]; S497
  MIC of vancomycin: 1 µg/mL
[2]; S556
  MIC of vancomycin: 1 µg/mL
[2]; WBC
  MIC of vancomycin: 2 µg/mL
MRSA [3]; 5518 (EMRSA-1), +1% human plasma
  MIC of methicillin: 4 µg/mL
MRSA [3]; 5518 (EMRSA-1), no plasma
  MIC of methicillin: 2 µg/mL
MRSA [3]; L277, +1% human plasma
  MIC of methicillin: 8 µg/mL
MRSA [3]; L277, no plasma
  MIC of methicillin: 4 µg/mL
MRSA [3]; L278, +1% human plasma
  MIC of methicillin: 16 µg/mL
MRSA [3]; L278, no plasma
  MIC of methicillin: 8 µg/mL
MRSA [3]; L279, +1% human plasma
  MIC of methicillin: 16 µg/mL
MRSA [3]; L279, no plasma
  MIC of methicillin: 4 µg/mL
MRSA [3]; L280, +1% human plasma
  MIC of methicillin: 8 µg/mL
MRSA [3]; L280, no plasma
  MIC of methicillin: 4 µg/mL
MRSA [3]; L281, +1% human plasma
  MIC of methicillin: 8 µg/mL
MRSA [3]; L281, no plasma
  MIC of methicillin: 4 µg/mL
MRSA [3]; L282, +1% human plasma
  MIC of methicillin: 16 µg/mL
MRSA [3]; L282, no plasma
  MIC of methicillin: 4 µg/mL
MRSA [3]; L283, +1% human plasma
  MIC of methicillin: 16 µg/mL
MRSA [3]; L283, no plasma
  MIC of methicillin: 4 µg/mL
MRSA [3]; L284, +1% human plasma
  MIC of methicillin: 8 µg/mL
MRSA [3]; L284, no plasma
  MIC of methicillin: 2 µg/mL
MRSA [3]; L285, +1% human plasma
  MIC of methicillin: 16 µg/mL
MRSA [3]; L285, no plasma
  MIC of methicillin: 4 µg/mL
MRSA [3]; L286, +1% human plasma
  MIC of methicillin: 8 µg/mL
MRSA [3]; L286, no plasma
  MIC of methicillin: 4 µg/mL
MRSA [3]; L287, +1% human plasma
  MIC of methicillin: 16 µg/mL
MRSA [3]; L287, no plasma
  MIC of methicillin: 4 µg/mL
MRSA [3]; L288, +1% human plasma
  MIC of methicillin: 16 µg/mL
MRSA [3]; L288, no plasma
  MIC of methicillin: 2 µg/mL
MRSA [3]; L289, +1% human plasma
  MIC of methicillin: 16 µg/mL
MRSA [3]; L289, no plasma
  MIC of methicillin: 4 µg/mL
MRSA [3]; L290, +1% human plasma
  MIC of methicillin: 8 µg/mL
MRSA [3]; L290, no plasma
  MIC of methicillin: 4 µg/mL
MRSA [3]; L291, +1% human plasma
  MIC of methicillin: 16 µg/mL
MRSA [3]; L291, no plasma
  MIC of methicillin: 4 µg/mL
MRSA [3]; L292, +1% human plasma
  MIC of methicillin: 32 µg/mL
MRSA [3]; L292, no plasma
  MIC of methicillin: 4 µg/mL
MRSA [3]; L293, +1% human plasma
  MIC of methicillin: 8 µg/mL
MRSA [3]; L293, no plasma
  MIC of methicillin: 2 µg/mL
MRSA [3]; L294, +1% human plasma
  MIC of methicillin: 8 µg/mL
MRSA [3]; L294, no plasma
  MIC of methicillin: 2 µg/mL
MRSA [4]; 0.02 M glycylbenzyl ester, said of Table 1
  strains tested with complete transformation: 100%
MRSA [4]; CD40 (EMRSA-1)
  MIC of methicillin: 2 µg/mL
MRSA [4]; DS09 (EMRSA-1)
  MIC of methicillin: 2 µg/mL
MRSA [4]; E15-97 (EMRSA-15)
  MIC of methicillin: 2 µg/mL
MRSA [4]; E16-96 (EMRSA-16)
  MIC of methicillin: 2 µg/mL
MRSA [4]; JF1-32 (EMRSA-1)
  MIC of methicillin: 2 µg/mL
MRSA [4]; L265
  MIC of methicillin: 2 µg/mL
MRSA [4]; L266
  MIC of methicillin: 2 µg/mL
MRSA [4]; L267
  MIC of methicillin: 2 µg/mL
MRSA [4]; L268
  MIC of methicillin: 2 µg/mL
MRSA [4]; L269
  MIC of methicillin: 1 µg/mL
MRSA [4]; L270
  MIC of methicillin: 1 µg/mL
MRSA [4]; L271
  MIC of methicillin: 2 µg/mL
MRSA [4]; L272
  MIC of methicillin: 1 µg/mL
MRSA [4]; L273
  MIC of methicillin: 1 µg/mL
MRSA [4]; L274
  MIC of methicillin: 2 µg/mL
MRSA [4]; L275
  MIC of methicillin: 2 µg/mL
MRSA [4]; L276
  MIC of methicillin: 2 µg/mL
MRSA [4]; L277
  MIC of methicillin: 2 µg/mL
MRSA [4]; L278
  MIC of methicillin: 4 µg/mL
MRSA [4]; L279
  MIC of methicillin: 2 µg/mL
MRSA [4]; L280
  MIC of methicillin: 2 µg/mL
MRSA [4]; L281
  MIC of methicillin: 2 µg/mL
MRSA [4]; L282
  MIC of methicillin: 2 µg/mL
MRSA [4]; L283
  MIC of methicillin: 2 µg/mL
MRSA [4]; L284
  MIC of methicillin: 2 µg/mL
MRSA [4]; L285
  MIC of methicillin: 2 µg/mL
MRSA [4]; L286
  MIC of methicillin: 2 µg/mL
MRSA [4]; L287
  MIC of methicillin: 2 µg/mL
MRSA [4]; L288
  MIC of methicillin: 2 µg/mL
MRSA [4]; L289
  MIC of methicillin: 2 µg/mL
MRSA [4]; L290
  MIC of methicillin: 2 µg/mL
MRSA [4]; L291
  MIC of methicillin: 2 µg/mL
MRSA [4]; L292
  MIC of methicillin: 2 µg/mL
MRSA [4]; L293
  MIC of methicillin: 2 µg/mL
MRSA [4]; L294
  MIC of methicillin: 2 µg/mL
MRSA [4]; MC01 (EMRSA-1)
  MIC of methicillin: 2 µg/mL
MRSA [4]; NCTC 12493
  MIC of methicillin: 0.015 µg/mL
MRSA [4]; PS3-32 (EMRSA-1)
  MIC of methicillin: 2 µg/mL
MRSA [4]; SN31 (EMRSA-1)
  MIC of methicillin: 2 µg/mL
MRSA [4]; ST11 (EMRSA-1)
  MIC of methicillin: 2 µg/mL
MRSA [4]; SW2-32 (EMRSA-1)
  MIC of methicillin: 2 µg/mL
MRSA [4]; Table 1
  effect on sensitivity to methicillin compared with glycine: increased sensitivity to methicillin to a much greater extent than glycine
MRSA [5]
  activity against VRE and MRSA relative to glycylglycine benzyl ester: greater activity
